The values that follow come from US8518952B2, “6 substituted 2-heterocyclylamino pyrazine compounds as CHK-1 inhibitors” (Pfizer Inc., priority 2008, dated 2013).

Like-named read-outs stand apart in the source and are kept apart here.

One test deals with T1, CHK1 (kinase domain) (Homo sapiens, UniProt O14757).
T1 construct: a solution containing 1 nM of CHK1 (kinase domain)
T1 sequence (O14757 9-265 limits assumed): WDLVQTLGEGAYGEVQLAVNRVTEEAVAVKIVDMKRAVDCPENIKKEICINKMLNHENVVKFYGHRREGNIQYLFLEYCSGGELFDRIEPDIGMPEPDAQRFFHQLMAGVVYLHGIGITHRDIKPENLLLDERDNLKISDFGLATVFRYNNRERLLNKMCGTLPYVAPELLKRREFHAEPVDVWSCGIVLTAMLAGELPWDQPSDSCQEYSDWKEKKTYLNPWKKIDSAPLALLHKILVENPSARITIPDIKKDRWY
Kind of test: CHK1 Ki determination, spectrophotometric coupled (pyruvate kinase/lactate dehydrogenase) assay. In kind it is biochemical. The settings on record: CHK-1 kinase domain; for Ki: 150 uM ATP, 125 uM Syntide 2; for percent inhibition (where no Ki data is available): inhibitor concentration not given. As to the method:
After 15 min pre-incubation, the enzymatic reaction was initiated by the simultaneous addition of Syntide 2 peptide (125 uM, final concentration) and ATP (150 uM, final concentration). The kinase-catalyzed production of ADP from ATP that accompanied phosphoryl transfer to the substrate Syntide 2 was coupled to the oxidation of NADH through the activities of pyruvate kinase and lactate dehydrogenase. NADH conversion to NAD^+ was monitored by the decrease in absorbance at 340 nm (ε=6.22 cm^−1 mM^−1) using a microplate reader from Molecular Devices Spectormax Plus (Sunnyvale, Calif.) or BMG LABTECH Inc (Offenburg, Germany).
The inhibition of CHK1 was analyzed by fitting the data to the following equation to determine Kiapp:
[formula] where [E]o and [I]o are the active enzyme and inhibitor concentration, respectively; Ki is the inhibition binding constant and Km the Michaelis-Menten constant for ATP; Vi and Vo are the rates of substrate oxidation in the presence of and in the absence of inhibitor, respectively. EC50 Determination (Cellular Assay)
(§1) Under the “Ki” column, data entries in the format of “%” are percent inhibition data where no Ki data is available. Data entry under the “EC50” column with an * are data obtained using Mia Paca-2 cells rather than HeLa cells. Data is not available where noted as n/a.

For a further test, the system named is HeLa cells. Kind of test: Histone H3 (Ser10) phosphorylation ELISA, abrogation of camptothecin-induced G2 arrest (CHK-1 cellular assay). Type of test: cell-based. The settings on record: HeLa cells, camptothecin 8 hrs, then compound with nocodozole 16 hours, read-out: EC50. As to the method:
The Histone H3 phosphorylation ELISA assay detects cells entering mitosis and represents the primary in vitro cell-based assay used to measure the cellular potency of compounds in abrogating the G2 check point induced by DNA damage in HeLa cells or MiaPaCa cells. The candidate substances were assayed for potency in their ability to inhibit camptothecin-induced G2 arrest, as measured by an increase in Histone H3 phosphorylation on Ser10, a marker of entry into mitosis.
Tissue culture plates were seeded with HeLa cells or MiaPaCa Cells and allowed to attach overnight. The cells were then treated with camptothecin to induce DNA damage for 8 hrs. Candidate substances or diluent were then added in the presence of nocodozole for 16 hours. […] The fresh whole cell lysates were then thawed and added to the ELISA plate with shaking for 3 hours. Between all subsequent steps plates were washed 4 times with PBST. Biotinylated phospho Histone H3 (ser10) detection antibody was added for 1 hour, followed by addition of horseradish peroxidase-linked streptavidin secondary antibody for 1 hour. Color development of the antibody was performed with addition of TMB substrate and incubation for 2 minutes on a plate shaker. […] EC50 values were calculated by sigmoid curve fitting using a four-parameter analysis.
as §1
(ELISA stands for enzyme-linked immunosorbent assay.)

As usually defined, the Ki is the equilibrium dissociation constant of an inhibitor or competing ligand from its target. Low readings indicate higher affinity, high ones lower affinity. As usually defined, the EC50 is the concentration at which the effect is half-maximal. Take `C[C@H]1CC[C@@H](Nc2cncc(-c3cnc4ccccn34)n2)CN1` [Example 30, 6-imidazo[1,2-a]pyridin-3-yl-N-[(3R,6S)-6-methylpiperidin-3-yl]pyrazin-2-amine]: on CHK1 (kinase domain), affinity was put at a Ki of 147 nM. For the same molecule, the half-maximal effective concentration (EC50) in the test on HeLa cells (Homo sapiens, HeLa) was 634 nM. Take `CCc1cn2c(-c3cncc(N[C@@H]4CCCN[C@@H]4C)n3)cnc2s1` [Example 166, 6-(2-ethylimidazo[2,1-b][1,3]thiazol-5-yl)-N-[(2R,3R)-2-methylpiperidin-3-yl]pyrazin-2-amine]: the Ki at CHK1 (kinase domain) stood at 4.79 nM. In addition, in the test on HeLa cells, the EC50 came out at 123 nM.

In the case of `N#Cc1ccn2c(-c3cncc(N[C@@H]4CCNC4)n3)cnc2c1` [Example 186, 3-{6-[(3R)-pyrrolidin-3-ylamino]pyrazin-2-yl}imidazo[1,2-a]pyridine-7-carbonitrile], at CHK1 (kinase domain), the affinity corresponds to a Ki of 24 nM. Moreover, the EC50 with HeLa cells (Homo sapiens, HeLa) worked out at 664 nM. The matching figures for `FC(F)[C@@H]1C[C@@H](Nc2cncc(-c3cnc4ccccn34)n2)CN1` [Example 25, N-[(3R,5S)-5-(difluoromethyl)pyrrolidin-3-yl]-6-(imidazo[1,2-a]pyridin-3-yl)pyrazin-2-amine]: 70.2 nM and at least 10000 nM. Take `COc1ccn2c(-c3cncc(N[C@@H]4C[C@@H]5CN[C@H]4C5)n3)cnc2c1` [Example 124, (1S,4R,6R)-N-[6-(7-methoxyimidazo[1,2-a]pyridin-3-yl)pyrazin-2-yl]-2-azabicyclo[2.2.1]heptan-6-amine]: the inhibition constant (Ki) on CHK1 (kinase domain) came to 2.29 nM. The EC50 with HeLa cells (Homo sapiens, HeLa) is at least 10000 nM. Take `CC1(Nc2cncc(-c3cnc4ccccn34)n2)CCNC1` (centres unmarked) [Example 99, 6-imidazo[1,2-a]pyridin-3-yl-N-(3-methylpyrrolidin-3-yl)pyrazin-2-amine]: affinity at CHK1 (kinase domain) was put at a Ki of 28.4 nM. Besides, the half-maximal effective concentration (EC50) with HeLa cells (Homo sapiens, HeLa) was at least 10000 nM.

On CHK1 (kinase domain), `FC(F)(F)c1ccn2c(-c3cncc(N[C@@H]4CCCNC4)n3)cnc2c1` [Example 40, N-[(3R)-piperidin-3-yl]-6-[7-(trifluoromethyl)imidazo[1,2-a]pyridin-3-yl]pyrazin-2-amine] had a Ki of 4.43 nM. Also, in the test on HeLa cells (Homo sapiens, HeLa), the EC50 was found to be 104 nM. `c1ccn2c(-c3cncc(NC4CC5CNC4C5)n3)cnc2c1` (centres unmarked) [Example 159, N-[6-(imidazo[1,2-a]pyridin-3-yl)pyrazin-2-yl]-2-azabicyclo[2.2.1]heptan-6-amine]: the Ki at CHK1 (kinase domain) amounted to 20.8 nM. For the same molecule, the EC50 with HeLa cells (Homo sapiens, HeLa) was found to be 166 nM. `C[C@H]1NCCC[C@H]1Nc1cncc(-c2cnc3sccn23)n1` [Example 180, 6-(imidazo[2,1-b][1,3]thiazol-5-yl)-N-[(2R,3R)-2-methylpiperidin-3-yl]pyrazin-2-amine] had a Ki on CHK1 (kinase domain) of 1.5 nM. In the test on HeLa cells (Homo sapiens, HeLa), the EC50 was at least 10000 nM.

Molecule `C[C@@H]1CC[C@@H](Nc2cncc(-c3cnc4ccc(F)cn34)n2)CN1` [Example 88, 6-(6-fluoroimidazo[1,2-a]pyridin-3-yl)-N-[(3R,6R)-6-methylpiperidin-3-yl]pyrazin-2-amine] had a Ki on CHK1 (kinase domain) of 90.7 nM. Besides, in the test with HeLa cells (Homo sapiens, HeLa), the EC50 is at least 10000 nM. At CHK1 (kinase domain), `C[C@H]1NCCC[C@H]1Nc1cncc(-c2cnc3cc(Cl)ccn23)n1` [Example 102, 6-(7-chloroimidazo[1,2-a]pyridin-3-yl)-N-[(2R,3R)-2-methylpiperidin-3-yl]pyrazin-2-amine] gave a Ki of 3.1 nM. The EC50 in the test with HeLa cells (Homo sapiens, HeLa) is at least 10000 nM. Consider `C[C@@H]1NCCC[C@@H]1Nc1cncc(-c2cnc3sccn23)n1` [Example 179, 6-(imidazo[2,1-b][1,3]thiazol-5-yl)-N-[(2S,3S)-2-methylpiperidin-3-yl]pyrazin-2-amine], for which the “percent inhibition (where no Ki data is available)” value at CHK1 (kinase domain) was 29.1%^. Besides, in the test with HeLa cells (Homo sapiens, HeLa), the EC50 is 294 nM. In turn, `CCOC[C@@H]1C[C@@H](Nc2cncc(-c3cnc4ccccn34)n2)CN1` [Example 193, N-[(3R,5S)-5-(ethoxymethyl)pyrrolidin-3-yl]-6-(imidazo[1,2-a]pyridin-3-yl)pyrazin-2-amine] returned a Ki on CHK1 (kinase domain) of 26.5 nM. In the test on HeLa cells (Homo sapiens, HeLa), the EC50 is 102 nM. `c1ccn2ncc(-c3cncc(N[C@@H]4CCNC4)n3)c2c1` [Example 115, 6-pyrazolo[1,5-a]pyridin-3-yl-N-[(3R)-pyrrolidin-3-yl]pyrazin-2-amine] displayed a Ki on CHK1 (kinase domain) of 3.3 nM. In addition, in the test with HeLa cells (Homo sapiens, HeLa), the EC50 was 169 nM. At CHK1 (kinase domain), `CCc1cn2c(-c3cncc(N[C@@H]4CCCN[C@@H]4C)n3)cnc2s1` [Example 108, 6-(2-ethylimidazo[2,1-b][1,3]thiazol-5-yl)-N-[(2R,3R)-2-methylpiperidin-3-yl]pyrazin-2-amine] showed a Ki of 10.2 nM. Moreover, in the test on HeLa cells, the EC50 came to 47 nM.

Turning to `Cc1cn2c(-c3cncc(N[C@@H]4CCCNC4)n3)cnc2s1` [Example 59, 6-(2-Methylimidazo[2,1-b][1,3]thiazol-5-yl)-N-[(3R)-piperidin-3-yl]pyrazin-2-amine], the affinity on CHK1 (kinase domain) corresponds to a Ki of 3 nM. In the test on HeLa cells (Homo sapiens, HeLa), the concentration giving a half-maximal response (EC50) turned out to be 9.09 nM. Consider `CCOc1ccc2ncn(-c3cncc(N[C@@H]4CCNC4)n3)c2c1` [Example 219, 6-(6-ethoxy-1H-benzimidazol-1-yl)-N-[(3R)-pyrrolidin-3-yl]pyrazin-2-amine], for which the “percent inhibition (where no Ki data is available)” value on CHK1 (kinase domain) is 48.4%^. Moreover, the EC50 in the test with HeLa cells (Homo sapiens, HeLa) was 979 nM.

At CHK1 (kinase domain), `FC[C@@H]1C[C@@H](Nc2cncc(-c3cnc4ccccn34)n2)CN1` [Example 67, N-[(3R,5S)-5-(fluoromethyl)pyrrolidin-3-yl]-6-imidazo[1,2-a]pyridin-3-ylpyrazin-2-amine] returned a Ki of 80 nM. Also, in the test on HeLa cells (Homo sapiens, HeLa), the EC50 amounted to 507 nM. The matching figures for `c1cnn2c(-c3cncc(N[C@@H]4CCCNC4)n3)cnc2c1` [Example 60, 6-Imidazo[1,2-b]pyridazin-3-yl-N-[(3R)-piperidin-3-yl]pyrazin-2-amine]: 1000 nM and 8320 nM. In turn, `CC(C)c1cn2c(-c3cncc(N[C@@H]4CCCN[C@@H]4C)n3)cnc2s1` [Example 165, N-[(2R,3R)-2-methylpiperidin-3-yl]-6-[2-(propan-2-yl)imidazo[2,1-b][1,3]thiazol-5-yl]pyrazin-2-amine] came in with a Ki on CHK1 (kinase domain) of 1.09 nM. Moreover, the EC50 in the test on HeLa cells came out at 123 nM. For the molecule `CC(C)c1ccc2ncc(-c3cncc(N[C@@H]4CCNC4)n3)n2c1` [Example 57, 6-(6-Isopropylimidazo[1,2-a]pyridin-3-yl)-N-[(3R)-pyrrolidin-3-yl]pyrazin-2-amine], on CHK1 (kinase domain), the affinity, expressed as Ki, was 6.09 nM. In the test on HeLa cells (Homo sapiens, HeLa), the EC50 is 373 nM.

At CHK1 (kinase domain), `C[C@H]1CNC[C@H]1Nc1cncc(-c2cnc3ccc(F)cn23)n1` [Example 141, 6-(6-fluoroimidazo[1,2-a]pyridin-3-yl)-N-[(3S,4S)-4-methylpyrrolidin-3-yl]pyrazin-2-amine] registered a Ki of 10 nM. The EC50 in the test on HeLa cells (Homo sapiens, HeLa) worked out at 77.8 nM.

For the molecule `Cc1cn2c(-c3cncc(N[C@@H]4C[C@@H]5CN[C@H]4C5)n3)cnc2s1` [Example 85, (1S,4R,6R)-2-Aza-bicyclo[2.2.1]hept-6-yl-[6-(2-methyl-imidazo[2,1-b]thiazol-5-yl)-pyrazin-2-yl]-amine], the EC50 in the test on HeLa cells was determined as 795 nM. The same measure, in the same setting: to `C[C@H]1NCCC[C@H]1Nc1cncc(-c2cnc3ccccn23)n1` [Example 138, 6-imidazo[1,2-a]pyridin-3-yl-N-[(2R,3R)-2-methylpiperidin-3-yl]pyrazin-2-amine] belongs 188 nM; to `Cc1cn2c(-c3cncc(N[C@@H]4C[C@@H]5CN[C@H]4C5)n3)cnc2s1` [Example 125, (1S,4R,6R)-N-[6-(2-methylimidazo[2,1-b][1,3]thiazol-5-yl)pyrazin-2-yl]-2-azabicyclo[2.2.1]heptan-6-amine], 35 nM.
